Results as given in patent US7998986B2, “Modulators of LXR” (Exelixis Patent Company LLC, priority 2001, dated 2011).

Experiments:
[1] = target: T1, LXRα (Homo sapiens, UniProt Q13133); experiment: Scintillation proximity assay (SPA), displacement of 3H-24,25-epoxycholesterol; set-up: made in house; conditions: scintillation proximity binding assay; average of at least two dose response experiments; read-out: Ki(α)
T1 sequence (Q13133 1-447): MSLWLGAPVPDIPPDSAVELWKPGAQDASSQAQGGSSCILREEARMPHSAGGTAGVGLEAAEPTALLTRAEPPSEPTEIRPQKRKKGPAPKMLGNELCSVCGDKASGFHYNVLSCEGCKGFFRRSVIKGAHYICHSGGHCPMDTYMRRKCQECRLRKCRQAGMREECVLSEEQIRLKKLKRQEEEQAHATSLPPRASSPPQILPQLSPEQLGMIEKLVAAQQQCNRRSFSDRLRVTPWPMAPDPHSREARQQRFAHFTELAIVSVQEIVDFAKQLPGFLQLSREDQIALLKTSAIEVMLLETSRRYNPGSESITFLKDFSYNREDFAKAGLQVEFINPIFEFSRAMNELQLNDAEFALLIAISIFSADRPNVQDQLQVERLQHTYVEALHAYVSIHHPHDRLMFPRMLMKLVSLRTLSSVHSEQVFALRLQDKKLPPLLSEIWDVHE
T1 sequence (P19793 1-462 partner): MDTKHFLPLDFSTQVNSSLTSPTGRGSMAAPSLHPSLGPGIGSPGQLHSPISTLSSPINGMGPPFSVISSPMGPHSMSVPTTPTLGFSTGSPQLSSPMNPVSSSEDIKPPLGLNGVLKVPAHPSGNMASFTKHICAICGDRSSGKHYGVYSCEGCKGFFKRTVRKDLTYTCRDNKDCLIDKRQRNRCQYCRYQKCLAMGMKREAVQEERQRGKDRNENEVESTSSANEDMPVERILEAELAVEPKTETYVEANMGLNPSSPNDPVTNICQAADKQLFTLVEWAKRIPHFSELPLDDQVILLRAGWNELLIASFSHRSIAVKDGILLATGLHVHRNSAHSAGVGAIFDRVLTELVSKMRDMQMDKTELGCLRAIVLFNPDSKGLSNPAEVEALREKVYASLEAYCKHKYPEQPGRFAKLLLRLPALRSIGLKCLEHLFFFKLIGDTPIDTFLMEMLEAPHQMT
Description: (§1) The SPA assay measures the radioactive signal generated by the binding of ^3H-24, 25-epoxycholesterol to LXRα or LXRβ. The basis of the assay is the use of SPA beads containing a scintillant, such that when binding to the receptor brings the labeled ligand into proximity with the bead, the energy from the label stimulates the scintillant to emit light. The light is measured using a standard microplate scintillation reader. The ability of a ligand to bind to a receptor can be measured by assessing the degree to which the compound can compete off a radiolabelled ligand with known affinity for the receptor.
(§2) A. Required Materials • 1. Label: ^3H-24, 25-epoxy-cholesterol (Amersham) • 2. LXRα lysate: Baculovirus expressed LXRα/RXR heterodimer with RXR having a 6-HIS tag produced as a crude lysate • 3. LXRβ lysate: Baculovirus expressed LXRβ/RXR heterodimer with RXR having a 6-HIS tag produced as a crude lysate • 4. SPA beads: Ysi copper His-tag SPA beads (Amersham) • 5. Plates: Non-binding surface 96-well plate (Corning) • 6. Protein lysate dilution buffer: (20 mM Tris-HCl pH 7.9, 500 mM NaCl, 5 mM Imidazole). • 7. 2×SPA Buffer: (40 mM K2HPO4/KH2PO4 pH7.3, 100 mM NaCl, 0.05% Tween 20, 20% Glycerol, 4mM EDTA) • 8. 2×SPA Buffer w/o EDTA: (40 mM K2HPO4/KH2PO4 pH7.3, 100 mM NaCl, 0.05% Tween 20, 20% Glycerol)
(§3) B. Preparation of Screening Reagents • 1. [^3H]24,25 Epoxycholesterol (EC) solution. For a single 384-well plate (or 400 wells), add 21 μl [^3H] EC (specific activity 76.5Ci/mmol, concentration 3.2mCi/ml) in 4.4 ml of 2×SPA buffer to a final concentration of 200nM. For each additional 384-well plate, add 19.1 μl additional [^3H] EC and 4.0 ml additional 2×SPA buffer. The final concentration of [^3H] EC in the well will be 50 nM. • 2. Dilute LXRα lysate with protein lysate dilution buffer. Make 1400 μl of diluted LXRα lysate for a 384-well plate, (or 200 wells) and 1120 μl of diluted LXRα lysate for each additional 384-well plate. • 3. Diluted LXRβ lysate with protein lysate dilution buffer. Make 1400 μl of diluted LXRβ lysate for 1 a 384-well plate, (or 200 wells) and 1120 μl of diluted LXRβ lysate for each additional 384-well plate. • 4. SPA bead solution. For 1 a 384-well plate (or 400 wells), mix 3.75 ml of 2× SPA buffer w/o EDTA, 2.25 ml of H2O, and 1.5 ml of Ysi His-tag SPA beads (Vortex well before taking). For each addition 384-well plate, mix additional 3.5 ml of 2×SPA buffer w/o EDTA, 2.1 ml of H2O, and 1.4 ml of Ysi His-tag SPA beads to the SPA bead solution.
(§4) C. Procedure: • 1. Prepare appropriate dilutions of each compound and pipette into the appropriate wells of a multiwell plate. • 2. Add 9.1 μl of [^3H] EC to each well of column 2-23 of the multiwell plate. • 3. Add 5 μl of diluted LXRα lysate to each well of column 2-23 on odd rows of the multiwell plate. • Add 5 μl of diluted LXRβ lysate to each well of column 2-23 on even rows of the multiwell plate. • 4. Add 17.5 μl of SPA bead solution to each well of column 2-23 of the multiwell plate. • 5. Cover the plates with clear sealer. Place the plates in the MicroBeta. Incubate at room temperature for 1 hr. • 6. Count using program n ABASE 3H—384DPM. The setting for n ABASE 3H—384DPM is:
(§5) Assays for LXRα and LXRβ were performed in the identical manner. The determined Ki represents the average of at least two independent dose response experiments. The binding affinity for each compound may be determined by non-linear regression analysis using the one site competition formula to determine the IC50 where:
(§6) [formula] The Ki is than calculated using the Cheng and Prusoff equation where:
(§7) [formula] Ligand=50 nM EC and Kd=200 nM as determined by saturation binding

[2] = target: T2, LXRβ (Homo sapiens, UniProt P55055); experiment: as above; set-up: made in house; conditions: scintillation proximity binding assay; average of at least two dose response experiments; read-out: Ki(β)
T2 sequence (P55055 1-460): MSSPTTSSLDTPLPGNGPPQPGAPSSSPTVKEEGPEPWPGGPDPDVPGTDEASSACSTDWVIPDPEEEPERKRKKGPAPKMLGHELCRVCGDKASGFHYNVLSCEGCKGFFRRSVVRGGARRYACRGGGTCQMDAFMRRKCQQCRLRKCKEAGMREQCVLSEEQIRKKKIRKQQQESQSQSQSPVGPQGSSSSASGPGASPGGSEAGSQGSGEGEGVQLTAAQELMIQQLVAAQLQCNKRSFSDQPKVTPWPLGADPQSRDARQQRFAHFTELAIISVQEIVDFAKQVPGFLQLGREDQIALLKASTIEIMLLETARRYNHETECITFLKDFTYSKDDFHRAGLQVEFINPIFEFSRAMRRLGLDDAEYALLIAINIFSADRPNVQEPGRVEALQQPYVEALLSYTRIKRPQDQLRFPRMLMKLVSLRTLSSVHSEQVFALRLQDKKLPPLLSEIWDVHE
T2 sequence (P19793 1-462 partner): T1 sequence (P19793 1-462 partner)
Description: as §1, §2, §3, §4, §5, §6, §7

[3] = target: T1, LXRα; experiment: LXR/LXRE co-transfection assay (luciferase reporter, CV-1 cells); assay type: cell-based; set-up: expressed in transfected cells; host or cells: CV-1 African Green Monkey Kidney Cells; conditions: for EC50: CV-1 cells, agonism; for LXRα/LXRE Eff: efficacy relative to control N-(3-((4-fluorophenyl)-(naphthalene-2-sulfonyl)-amino)propyl)-2,2-dimethylpropionamide
Source text: (§8) To measure the ability of compounds to activate or inhibit the transcriptional activity of LXR, in a cell based assay, the cotransfection assay may be used. It has been shown that LXR functions as a heterodimer with RXR. For the co-transfection assay, expression plasmids for LXR and RXR are introduced via transient transfection into mammalian cells along with a luciferase reporter plasmid that contains one copy of a DNA sequence that is bound by LXR-RXR heterodimers (LXRE; Willy, P. et al. 1995). Treatment of transfected cells with an LXR agonist increases the transcriptional activity of LXR, which is measured by an increase in luciferase activity.
(§9) A. Required Materials • 1. CV-1 African Green Monkey Kidney Cells • 2. Co-transfection Expression plasmids, CMX-hLXR, or CMX-hLXR, CMX-RXR, reporter (LXREx1-Tk-Luciferase), and control (CMX-Galactosidase expression vector). • 3. Transfection reagent such as FuGENE6 (Roche). • 4. 1× Cell lysis buffer (1% Triton X 100 (JT Baker X200-07), 10% Glycerol (JT Baker M778-07), 5 mM Ditriotreitol (Quantum Bioprobe DTT03; add fresh before lysing), 1 mM EGTA (Ethylene Glycol-bis (B-Amino ethyl ether)-N,N,N′,N′-Tetracetic Acid) (Sigma E-4378), 25 mM Tricine (ICN 807420) pH 7.8 • 5. 1× Luciferase assay buffer (pH at 7.8) (0.73 mM ATP, 22.3 mM Tricine, 0.11 mM EDTA 33.3 mM DTT) • 6. 1× Luciferrin/CoA (11 mM Luciferin, 3.05 mM Coenzyme A, 10 mM HEPES
(§10) B. Preparation of Screening Reagents • 1. CV-1 cells are prepared 24 hours prior to the experiment by plating them into T-175 flasks or 500 cm^2 dishes in order to achieve 70-80% confluency on the day of the transfection. The number of cells to be transfected is determined by the number of plates to be screened. Each 384 well plate requires 1.92×10^6 cells or 5000 cells per well. • 2. DNA Transfection Reagent is prepared by mixing the required plasmid DNAs with a cationic lipid transfection reagent such as DOTAP or FuGENE6 by following the instructions provided with the reagents. Optimal DNA amounts need to be determined empirically per cell line and size of vessel to be transfected. • 3. Add 10-12 mls media to the DNA Transfection Reagent and add this mixture to the cells after aspirating media from a T175 cm^2 flask. • 4. Incubate at least 5 hours at 37 degrees to prepare screening cells. • 5. Luciferase assay reagent is prepared by combining before use (per • 10 ml): • 10 ml 1× Luciferase assay buffer • 0.54 mls of 1× Luciferrin/CoA • 0.54 mls of 0.2 M Magnesium sulfate
(§11) 1. C. Procedure • 1. Prepare assay plates by dispensing 0.5 ul of 1 mM compound per well of a 384 well plate to achieve final compound concentration of 10 uM and 1% DMSO. • 2. Remove media from the screening cells, trypsinize, harvest cells by centrifugation, count the cells, and plate at 5000 cells per well in the 384 well assay plate prepared above in a volume of about 45 ul. • 3. Incubate assay plates containing both compounds and screening cells for 20 hours at 37 C. degrees. • 4. Carefully aspirate media from cells and ensure that cells are not lifted off. • 5. Add lysis buffer (30 ul/well) and incubate at least 30 minutes room temp. • 6. Add luciferase assay buffer (30 ul/well) and read assay plates on luminometer (PE Biosystems Northstar reader with on-board injectors, or equivalent). • 7. Read plates immediately after addition of luciferase assay reagent.
(§12) The LXR/LXRE co-transfection assay can be used to establish the EC50/IC50 values for potency and percent activity or inhibition for efficacy. Efficacy defines the activity of a compound relative to a high control ((N-(3-((4-fluorophenyl)-(naphthalene-2-sulfonyl)-amino)propyl)-2,2-dimethylpropionamide)) or a low control (DMSO/vehicle). The dose response curves are generated from an 8 point curve with concentrations differing by ½ LOG units. Each point represents the average of 4 wells of data from a 384 well plate. The curve for the data is generated by using the equation: Y=Bottom+(Top-Bottom)/(1+10^((LogEC50-X)*HillSlope)) […]

[4] = target: T2, LXRβ; experiment: as above; assay type: cell-based; set-up: expressed in transfected cells; host or cells: CV-1 African Green Monkey Kidney Cells; conditions: for EC50: CV-1 cells, agonism; for LXRβ/LXRE Eff: efficacy relative to control N-(3-((4-fluorophenyl)-(naphthalene-2-sulfonyl)-amino)propyl)-2,2-dimethylpropionamide
Source text: as §8, §9, §10, §11, §12

Row | Ki [1] [nM] | Ki [2] [nM] | EC50 [3] [nM] | LXRα/LXRE Eff [3] [%] | EC50 [4] [nM] | LXRβ/LXRE Eff [4] [%] | Structure (SMILES)
1 | 360 | 230 | 580 | 91 | 810 | 93 | Cc1ccc(Cn2c(-c3ccccc3)cc(C(F)(F)F)c(C#N)c2=O)o1 [1-(5-Methyl-furan-2-ylmethyl)-2-oxo-6-phenyl-4-trifluoromethyl-1,2-dihydro-pyridine-3-carbonitrile]
2 | 1400 | 580 | 1600 | 56 | 1800 | 82 | N#Cc1c(C(F)(F)F)cc(-c2cccs2)n(Cc2ccccc2)c1=O [1-Benzyl-2-oxo-6-thiophen-2-yl-4-trifluoromethyl-1,2-dihydro-pyridine-3-carbonitrile]
3 | 510 | 120 | 1200 | 78 | 840 | 79 | COc1cccc(-c2cc(C(F)(F)F)c(C#N)c(=O)n2Cc2ccccc2)c1 [1-Benzyl-6-(3-methoxy-phenyl)-2-oxo-4-trifluoromethyl-1,2-dihydro-pyridine-3-carbonitrile]
4 | 690 | 450 | 3400 | 90 | 4300 | 72 | N#Cc1c(C(F)(F)F)cc(-c2ccccc2)n(N=C2CCCCC2)c1=O [1-Cyclohexylideneamino-2-oxo-6-phenyl-4-trifluoromethyl-1,2-dihydropyridine-3-carbonitrile]
